Source: paper PMC7044277 (Nature Communications, 2020)
Values joined by “and” are separate entries in the source; they are usually repeats but may differ in a detail not shown here. Equal entries are not always repeated.

Key:
Assay type in all cases: cell-based
Design in all cases: GPCRome screening signal at PTGIR / GPCRome screening signal at PTH1R / GPCRome screening signal at PTH2R / GPCRome screening signal at QRFP / GPCRome screening signal at RXFP2 / GPCRome screening signal at RXFP3 / GPCRome screening signal at RXFP4 / GPCRome screening signal at S1PR2 / GPCRome screening signal at S1PR3 / GPCRome screening signal at S1PR4 / GPCRome screening signal at S1PR5 / GPCRome screening signal at SCTR / GPCRome screening signal at SSTR2 / GPCRome screening signal at SSSTR / GPCRome screening signal at SSTR4 / GPCRome screening signal at SSTR5 / GPCRome screening signal at SUCNR1 / GPCRome screening signal at TA1 / GPCRome screening signal at TAAR2 / GPCRome screening signal at TAAR5 / GPCRome screening signal at TAAR6 / GPCRome screening signal at TAAR8 / GPCRome screening signal at TACR1 / GPCRome screening signal at TACR2 / GPCRome screening signal at TACR3 / GPCRome screening signal at TBXA2R / GPCRome screening signal at TSHR / GPCRome screening signal at UTS2R / GPCRome screening signal at VIPR2 / GPCRome screening signal at GPR68 no V2 Tail / GPCRome screening signal at GRM2 / GPCRome screening signal at GRM3: reference not given here
320 non-olfactory GPCRs [1] = target: T1, 320 non-olfactory GPCRs (Homo sapiens, UniProt Q9NSD7); conditions: receptor RXFP3
T1 construct: expressed in transfected cells; host or cells: HTLA cells

320 non-olfactory GPCRs [2] = target: T2, 320 non-olfactory GPCRs (Homo sapiens, UniProt Q8TDU9); conditions: receptor RXFP4
T2 construct: expressed in transfected cells; host or cells: HTLA cells

320 non-olfactory GPCRs [3] = target: T3, 320 non-olfactory GPCRs (Homo sapiens, UniProt Q96RJ0); conditions: receptor TA1
T3 construct: expressed in transfected cells; host or cells: HTLA cells

320 non-olfactory GPCRs [4] = target: T4, 320 non-olfactory GPCRs (Homo sapiens, UniProt Q8WXD0); conditions: receptor RXFP2
T4 construct: expressed in transfected cells; host or cells: HTLA cells

[5] = Fig_5f, single replicate values
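For GPCRome agonism screen response in this document: fold over basal response of each receptor without drug.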

T3 sequence (Q96RJ0 whole entry): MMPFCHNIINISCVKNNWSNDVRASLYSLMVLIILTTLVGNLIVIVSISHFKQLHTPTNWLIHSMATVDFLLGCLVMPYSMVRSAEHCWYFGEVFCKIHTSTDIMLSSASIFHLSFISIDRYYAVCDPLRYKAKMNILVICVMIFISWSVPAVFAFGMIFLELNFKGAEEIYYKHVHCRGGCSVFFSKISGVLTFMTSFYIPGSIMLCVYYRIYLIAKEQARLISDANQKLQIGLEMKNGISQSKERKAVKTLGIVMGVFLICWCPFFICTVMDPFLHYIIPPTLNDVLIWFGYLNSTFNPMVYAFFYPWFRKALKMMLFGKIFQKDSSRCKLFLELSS
T1 sequence (Q9NSD7 whole entry): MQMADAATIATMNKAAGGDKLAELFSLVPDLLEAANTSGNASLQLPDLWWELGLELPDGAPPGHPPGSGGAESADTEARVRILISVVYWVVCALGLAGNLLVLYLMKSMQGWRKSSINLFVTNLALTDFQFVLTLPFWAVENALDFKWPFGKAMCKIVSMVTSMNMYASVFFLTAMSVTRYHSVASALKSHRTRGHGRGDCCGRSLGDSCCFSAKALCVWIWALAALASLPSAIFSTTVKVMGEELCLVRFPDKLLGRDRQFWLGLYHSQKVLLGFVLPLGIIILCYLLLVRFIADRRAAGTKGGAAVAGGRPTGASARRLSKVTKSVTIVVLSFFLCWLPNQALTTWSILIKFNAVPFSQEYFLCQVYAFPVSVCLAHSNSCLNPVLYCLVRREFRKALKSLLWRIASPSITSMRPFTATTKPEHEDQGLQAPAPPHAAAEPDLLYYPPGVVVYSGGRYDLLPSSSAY
T4 sequence (Q8WXD0 whole entry): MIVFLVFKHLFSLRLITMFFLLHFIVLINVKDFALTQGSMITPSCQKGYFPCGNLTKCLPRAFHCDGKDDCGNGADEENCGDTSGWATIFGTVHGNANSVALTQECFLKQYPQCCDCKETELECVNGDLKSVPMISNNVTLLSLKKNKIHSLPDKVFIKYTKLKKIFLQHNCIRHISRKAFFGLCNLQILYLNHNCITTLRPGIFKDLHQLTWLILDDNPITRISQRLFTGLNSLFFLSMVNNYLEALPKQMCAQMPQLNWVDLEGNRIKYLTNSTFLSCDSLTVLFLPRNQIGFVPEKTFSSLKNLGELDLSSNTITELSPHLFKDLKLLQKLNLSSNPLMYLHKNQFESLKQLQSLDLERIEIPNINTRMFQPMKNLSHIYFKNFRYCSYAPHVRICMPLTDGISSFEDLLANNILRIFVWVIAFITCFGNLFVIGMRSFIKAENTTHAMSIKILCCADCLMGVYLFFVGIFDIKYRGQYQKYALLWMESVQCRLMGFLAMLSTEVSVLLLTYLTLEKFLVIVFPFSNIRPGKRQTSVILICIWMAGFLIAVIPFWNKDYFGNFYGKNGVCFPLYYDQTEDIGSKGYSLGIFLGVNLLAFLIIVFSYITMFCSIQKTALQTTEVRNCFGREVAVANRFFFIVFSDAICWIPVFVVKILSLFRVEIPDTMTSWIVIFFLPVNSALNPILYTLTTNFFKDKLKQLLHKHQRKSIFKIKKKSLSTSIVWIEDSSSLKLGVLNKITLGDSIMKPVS
T2 sequence (Q8TDU9 whole entry): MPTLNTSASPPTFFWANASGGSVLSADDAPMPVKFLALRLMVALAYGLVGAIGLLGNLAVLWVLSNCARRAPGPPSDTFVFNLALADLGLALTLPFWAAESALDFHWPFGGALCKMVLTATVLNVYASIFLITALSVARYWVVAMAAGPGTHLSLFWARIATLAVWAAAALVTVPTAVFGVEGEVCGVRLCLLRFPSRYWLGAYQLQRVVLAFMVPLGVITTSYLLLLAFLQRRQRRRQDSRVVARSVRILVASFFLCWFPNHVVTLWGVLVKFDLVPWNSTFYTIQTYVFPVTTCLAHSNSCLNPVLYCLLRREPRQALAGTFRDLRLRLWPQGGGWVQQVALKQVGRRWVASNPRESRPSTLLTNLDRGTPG

Row | SMILES | GPCRome screening signal at RXFP3 (320 non-olfactory GPCRs [1]; [5]) | GPCRome screening signal at RXFP4 (320 non-olfactory GPCRs [2]; [5]) | GPCRome screening signal at TA1 (320 non-olfactory GPCRs [3]; [5]) | GPCRome screening signal at RXFP2 (320 non-olfactory GPCRs [4]; [5]) | GPCRome agonism screen response (320 non-olfactory GPCRs [1]; replicate values, Fig_4g) | GPCRome agonism screen response (320 non-olfactory GPCRs [2]; replicate values, Fig_4g) | GPCRome agonism screen response (320 non-olfactory GPCRs [3]; replicate values, Fig_4g) | GPCRome agonism screen response (320 non-olfactory GPCRs [4]; replicate values, Fig_4g)
1 | CCOc1ccccc1CCC(C)NCC1(O)CCCCC1.Cl (racemic) [Fig_5f] | 0.4184 and 0.8431 and 0.6194 and 0.3935 | 0.4319 and 1.123 and 0.5997 and 0.5278 | 0.8481 and 0.8735 and 0.8675 and 0.7534 | 1.049 and 1.08 and 1.42 and 0.7752 |  |  |  | 
2 | CCOc1cccc2cc(C(C)NCC3(O)CCCCC3)oc12 (centres unmarked) [O4LE6] |  |  |  |  | 0.4551 and 0.2696 and 0.704 and 0.4767 | 0.5888 and 1.446 and 0.8124 and 1.384 | 0.6778 and 0.9948 and 0.7841 and 0.8752 | 0.9912 and 0.8618 and 0.6803 and 0.6522
